Here are results for 21 compounds from paper PMC6033897, “Characterization and Validation of a Human 3D Cardiac Microtissue for the Assessment of Changes in Cardiac Pathology” (Scientific Reports, 2018).

Each structure is given as a SMILES string. Structures can show the parent of a compound that is named as a salt.

The conditions of data set [1]: total Cmax, therapeutically relevant maximum total plasma concentration; source not given; cited from earlier work.
The subject of data set [2] is cardiac microtissues. As to the kind of experiment: Cellular viability (ATP depletion, CellTiter-Glo) in cardiac microtissues. Type of data set: cell-based, human. Conditions: for IC50: read-out: Cellular viability (ATP depletion) IC50. The procedure: (§1) Cellular ATP concentrations were assessed using the CellTiter-Glo® Luminescent Cell Viability Assay as per the manufacturer’s instructions (Promega); for cardiac microtissues 40 µl media was removed prior to the addition of 40 µl CellTiter-Glo® reagent. […] Data from the same treatment on minimum of 3 occasions were averaged to represent the mean ATP measurement.
(In general: ATP-based viability assays read luminescence as a measure of living cells.)

The subject of data set [3] is cardiac microtissues. The experiment in a line: ER integrity (ER-Tracker blue imaging) in cardiac microtissues. The data set is classed as cell-based, human. Conditions: for IC50: read-out: ER integrity IC50. The procedure:
(§2) Cardiac microtissues were stained with fluorescent probes in cell culture media, 40 µl media was removed and 40 µl of 2x multiplexed dye was added back to the well for 30 minutes at 37 °C, 5% CO2. Fluorescent probes used were ER-Tracker blue (2 µM) to measure endoplasmic reticulum (ER) integrity and TMRE (500 nM) to measure mitochondrial membrane potential (ΔΨm). All microtissues were imaged on a Cell Voyager 7000 (YokogawaInc.) and images captured using a 20x objective (Olympus UPLSAPO 0.75 NA, 0.6 mm WD), with a 2 × 2 bin. Plates are imaged live, prior to use the stage temperature was set to 37 °C and CO2 level at 5%. […] Transmitted light images were acquired using a 100 W Halogen lamp as an illumination source. Images were captured over a 60 μm range in the Z-axis with a 5 μm interval between slices. Z-stack images were output as a maximal projection of multiple z-planes.
(§3) Maximum projection images were imported and analysed in the Columbus Platform (v2.7, Perkin Elmer Inc.).

The subject of data set [4] is cardiac microtissues. As to the kind of experiment: Mitochondrial membrane potential (ΔΨm, TMRE imaging) in cardiac microtissues. Type of data set: cell-based, human. Conditions: for IC50: read-out: Mitochondrial membrane potential (ΔΨm) IC50. Here is the method: as §2, §3
The subject of data set [5] is hiPS-CM. The experiment in a line: Cellular viability (ATP depletion) in 2D monoculture. The data set is classed as cell-based. Particulars: Homo sapiens, 72 hours. The procedure: (§4) For 2D monoculture, hiPS-CM, hCMEC and hCF were cultured as described above and seeded in CellCarrier-384 Ultra microplates (Perkin Elmer, 6057300) at 5000, 2500 and 1750 cells/well respectively.
as §1

The test system of data set [6] is hCMEC. The data set is described as above. Type of data set: cell-based. Conditions: Homo sapiens. Here is the method: as §4, §1
Data set [7] concerns hCF. The experiment in a line: ER integrity in 2D monoculture. Conditions: Homo sapiens, read-out: ER integrity IC50.
Data set [8] deals with hiPS-CM. As to the kind of experiment: ER integrity in 2D monoculture. Type of data set: cell-based. Conditions: Homo sapiens. The procedure: as §4
(§5) Monoculture cells were stained with fluorescent probes diluted in cell culture media, 25 µl media was removed and 25 µl of 2x multiplexed dye was added back to the well for 15 minutes at 37 °C, 5% CO2.

Data set [9] has as its system hCMEC. The experiment in a line: ER integrity in 2D monoculture. The data set is classed as cell-based. Conditions: Homo sapiens. The procedure: as §4, §5
The test system of data set [10] is hiPS-CM. The experiment in a line: Mitochondrial membrane potential (ΔΨm) in 2D monoculture. The data set is classed as cell-based. Conditions: Homo sapiens. Here is the method: as §4, §5
In data set [11] the test system is hCMEC. Described as above. The data set is classed as cell-based. Particulars: Homo sapiens. The procedure: as §4, §5
Data set [12] has as its system hCF. The description is as above. Particulars: Homo sapiens, read-out: Mitochondrial membrane potential (ΔΨm) IC50.
In data set [13] the test system is hCF. As to the kind of experiment: Cellular viability (ATP depletion) in 2D monoculture. Particulars: Homo sapiens, read-out: Cellular viability (ATP depletion) IC50.
The mark [14] stands for this setting: Homo sapiens, cardiac microtissues, 72 hours, geometric mean.
The mark [15] stands for this setting: cardiac microtissues, 72 hours, geometric mean.
[16] abbreviates: cardiac microtissues, mechanistic fingerprint.

In the case of `Nc1nc2c(ncn2COCCO)c(=O)[nH]1` [Acyclovir], the Cmax – broadly, the peak of the concentration-time curve – in data set [1] is 6660 nM. The IC50 in [2] (setting [14]), in data set [3] (setting [14]) and in [4] (setting [14]) was over 100 µM in each case.
On to `C[C@@H]1[C@H](O)[C@@H](C)/C=C/C=C/C=C/C=C/C=C/C=C/C=C/[C@H](O[C@@H]2O[C@H](C)[C@@H](O)[C@H](N)[C@@H]2O)C[C@@H]2O[C@](O)(C[C@@H](O)C[C@@H](O)[C@H](O)CC[C@@H](O)C[C@@H](O)CC(=O)O[C@H]1C)C[C@H](O)[C@H]2C(=O)O` [Amphotericin B], for which, in data set [1], the Cmax was 9000 nM. For the same compound, the values for the IC50 in [2] (setting [14]), in [3] (setting [14]) and in data set [4] (setting [14]) were 37.6 µM, 3.56 µM and over 50 µM, respectively.
Turning to `CC(C)C[C@H](NC(=O)[C@H](Cc1ccccc1)NC(=O)c1cnccn1)B(O)O` [Bortezomib], the Cmax in [1] is 290 nM. Also, the IC50 (in general, the concentration at which inhibition is half-maximal) was determined as 0.35 µM in data set [2] (setting [14]), 91.8 µM in data set [3] (setting [14]) and 1.62 µM in data set [4] (setting [14]).
Turning to `O=C1CC2(CCCC2)CC(=O)N1CCCCN1CCN(c2ncccn2)CC1` [Buspirone HCl], the peak concentration (Cmax) in data set [1] is 30 nM. Besides, the IC50 is 56.4 µM in data set [2] (setting [14]), over 100 µM in [3] (setting [14]) and over 100 µM in data set [4] (setting [14]).
In the case of `COc1cc(N)c(Cl)cc1C(=O)NC1CCN(CCCOc2ccc(F)cc2)CC1OC` (stereo not drawn) [Cisapride Hydrate], in data set [1], the Cmax was 170 nM. The results for the IC50 in data set [2] (setting [15]), in data set [3] (setting [15]) and in [4] (setting [15]) were 76.4 µM, 32.8 µM and over 100 µM, respectively.
Consider `CN1CCN(C2=Nc3cc(Cl)ccc3Nc3ccccc32)CC1` [Clozapine], for which the Cmax in [1] was 470 nM.
For `O=P1(N(CCCl)CCCl)NCCCO1` (stereo not drawn) [Cyclophosphamide], the Cmax in data set [1] is 153000 nM. The IC50 in data set [2] (Homo sapiens, 72 h) is 54.4 µM; in [3] (Homo sapiens, 72 h), 60.7 µM; in data set [4] (Homo sapiens, 72 h) it was 65.7 µM.
As to `C#Cc1cccc(Nc2ncnc3cc(OCCOC)c(OCCOC)cc23)c1` [Erlotinib], in [1], the Cmax is 3000 nM. Besides, the IC50 in data set [2] (setting [14]) is 20.8 µM; in data set [3] (setting [14]), over 30 µM; in [4] (setting [14]) it was over 30 µM.
For `O=c1[nH]cc(F)c(=O)[nH]1` [Fluorouracil], the Cmax in data set [1] was 4610 nM. Besides, the half-inhibitory concentration (IC50) came out at 27.5 µM in data set [2] (setting [14]), 60 µM in data set [3] (setting [14]) and 11.3 µM in [4] (setting [14]).
`Cc1ccc(C)c(OCCCC(C)(C)C(=O)O)c1` [Gemfibrozil]: in data set [1], the Cmax was 99900 nM. Besides, the IC50 in data set [2] (setting [14]), in [3] (setting [14]) and in data set [4] (setting [14]) was over 100 µM in each case.
Consider `CC(=O)[C@]1(O)Cc2c(O)c3c(c(O)c2[C@@H](O[C@H]2C[C@H](N)[C@H](O)[C@H](C)O2)C1)C(=O)c1ccccc1C3=O` [Idarubicin HCl], for which, in [1], the Cmax was 120 nM. For the same compound, the IC50 in data set [2] (setting [14]) turned out to be 0.03 µM; in data set [3] (setting [14]) it was 1.67 µM; in data set [4] (setting [14]), 0.97 µM.
With `CC(C)NCC(O)c1ccc(O)c(O)c1` (stereo not drawn) [Isoproterenol HCl], the Cmax in data set [1] is 10 nM. In addition, the IC50 was over 100 µM in data set [2] (setting [14]), 76.9 µM in data set [3] (setting [14]) and 59.2 µM in data set [4] (setting [14]).
`CC(C(=O)O)c1cccc(C(=O)c2ccccc2)c1` (stereo not drawn) [Ketoprofen]: the IC50 in data set [2] (setting [14]) is 37.6 µM; in data set [3] (setting [14]), over 100 µM; in data set [4] (setting [14]) it was over 100 µM.
Turning to `CS(=O)(=O)CCNCc1ccc(-c2ccc3ncnc(Nc4ccc(OCc5cccc(F)c5)c(Cl)c4)c3c2)o1` [Lapatinib], the IC50 in data set [5] is over 100 µM; in data set [6] (24 hours), 16.2 µM; in data set [6] (72 hours) it was 3.07 µM; in data set [7] (24 h) it was 14.7 µM; in data set [7] (72 h), 11 µM; in [8] (24 hours), 23.6 µM. Further, the IC50 in data set [8] (72 hours) was determined as 3.1 µM; in data set [9] (24 hours), 26.7 µM; in [9] (72 hours), 4.4 µM; in data set [2] (setting [14]) it was 12.9 µM; in data set [10] (24 hours) it was 31.9 µM; in data set [10] (72 hours), 23.6 µM. The half-maximal inhibitory concentration (IC50) in data set [11] (24 hours) was 5.47 µM; in data set [11] (72 hours), 11.6 µM; in data set [12] (24 h) it was 42.9 µM; in data set [12] (72 h), 28.8 µM; in data set [3] (setting [14]) it was over 100 µM; in [4] (setting [14]), 2.84 µM. Moreover, the IC50 in [13] (24 h) stood at 21.6 µM; in [13] (72 h), 11 µM. In addition, in data set [1], the Cmax was 4180 nM. For the same compound, the “Cellular viability modulated at multiple of total Cmax” value in data set [2] (setting [16]) is at most 10 times the total Cmax. The “ER integrity modulated at multiple of total Cmax” value in data set [3] (setting [16]) is given as at most 100 times the total Cmax. In addition, the “ΔΨm modulated at multiple of total Cmax” value in data set [4] (setting [16]) is reported as at most 1 times the total Cmax.
As to `COC(=O)Nc1nc2ccc(C(=O)c3ccccc3)cc2[nH]1` [Mebendazole], in [1], the Cmax was 2030 nM. Besides, the figures for the IC50 in [2] (setting [14]), in data set [3] (setting [14]) and in data set [4] (setting [14]) were over 50 µM, 5.97 µM and over 50 µM, respectively.
With `CN(C)CCN(Cc1cccs1)c1ccccn1` [Methapyrilene], in [1], the Cmax is 15300 nM.
Take `Nc1cc(N2CCCCC2)nc(N)[n+]1[O-]` [Minoxidil]: the Cmax in [1] is 14800 nM. Moreover, the IC50 in data set [2] (setting [14]), in data set [3] (setting [14]) and in data set [4] (setting [14]) was over 50 µM in each case.
For `O=C1c2c(O)ccc(O)c2C(=O)c2c(NCCNCCO)ccc(NCCNCCO)c21` [Mitoxantrone diHCl], the IC50 came to 0.29 µM in data set [2] (setting [14]), 1.1 µM in data set [3] (setting [14]) and 0.98 µM in [4] (setting [14]).
Turning to `O=C1C[C@@H](c2ccc(O)cc2)Oc2cc(O)cc(O)c21` [Narigenin], the Cmax in data set [1] was 15400 nM. Moreover, the half-maximal inhibitory concentration (IC50) was 62.5 µM in data set [2] (setting [15]), over 100 µM in data set [3] (setting [15]) and over 100 µM in data set [4] (setting [15]).
Turning to `O=C(C1CCCCC1)N1CC(=O)N2CCc3ccccc3C2C1` (stereo not drawn) [Praziquantel], the Cmax in data set [1] is 640 nM. In addition, the IC50 was 10.1 µM in data set [2] (setting [14]), 0.82 µM in data set [3] (setting [14]) and over 100 µM in data set [4] (setting [14]).
For the compound `CC(C)(C)c1ccc(C(O)CCCN2CCC(C(O)(c3ccccc3)c3ccccc3)CC2)cc1` (stereo not drawn) [Terfenadine], in [1], the Cmax is 130 nM. Further, the IC50 in data set [2] (setting [14]) is 13 µM; in data set [3] (setting [14]), 23.7 µM; in data set [4] (setting [14]) it was over 100 µM.
